In US20140094414A1, “COMPOSITION FOR PREVENTING OR TREATING NEURODEGENERATIVE DISEASE INCLUDING BIOACTIVE PEPTIDE AS EFFECTIVE COMPONENT” (PUKYONG NATIONAL UNIVERSITY INDUSTRY-UNIVERSITY CO, priority 2012, published 2014):
No end group written: not given here.

Experiments:
[1] = tested on: BV2 cells, murine microglia; assay: Cytotoxicity, MTT assay in BV2 cells; assay type: cell-based; conditions: for cytotoxicity in BV2 cell: 10, 50, 100 μM, 24 and 48 hours
Method: Cytoprotective effect was determined by MTT reduction assay. […] After incubations for 24 hours and 48 hours, the incubated cells were washed with PBS, 100 μl of MTT (0.5 mg/ml final concentration) was added to each wells, and incubation was continued for another 4 hours for a reduction of MTT. […] Relative cell viability was calculated as a percentage compared with the absorbance of the untreated control group.

[2] = tested on: PC12 cells co-cultured with BV2 cells; assay: Co-culture of Aβ42-activated BV2 cells and PC12 cells, MTT assay; conditions: 100 μM peptide, 48 hours, 5 uM Aβ42
Method: For the co-culture of microglia and PC12 cells, which has been employed to assess the neurotoxin effect of activated microglia, microglia was first seeded onto cell culture inserts (pore size of 0.2 μm; SPL, Korea). After overnight incubation, microglia were left untreated or exposed 5 uM Aβ42 in the presence or absence of peptides for 24 h. Afterwards, the microglial cells were co-cultured with PC12 cells by transferring the culture inserts containing microglia onto PC12 cell monolayers (see FIG. 15).
In order to confirm cell viability of co-cultured PC12 cell, MTT assay was performed.

NO = NO production, Griess reaction in Aβ42-stimulated BV2 cells; assay type: cell-based, murine; conditions: stimulation with Aβ42 alone (control), 1 μM 48 h
Method: NO levels in the cultured BV2 cells' supernatants were measured by the Griess reaction. In brief, BV2 cells were pre incubated overnight in 24-well plates using DMEM without phenol red at a density 2×10^5 cells/ml, followed by the treatment with the HIP-1 peptide of the present invention having various concentrations (10, 50, 100 μM) as a sample for 6 h. After 6 h, the NO production was stimulated by adding Aβ42 (1 μM final concentration) and incubated for further 48 h. Then 50 μl of culture supernatants from each samples was mixed with the same volume of the Griess reagent [1% sulfanilamide/0.1% N-1-naphthyl]-ethylenediamine dihydrochloride/2.5% phosphoric acid] following the incubation for 15 min. Absorbance values were read at 540 nm using ELISA microplate reader (Tecan GmbH, Austria). Blank was not treated, and control was activated BV2 cells by exposing Aβ42 without the HIP-1 peptide of the present invention.

[3] = tested on: nerve cells-differentiated PC12 cells
Method: The present inventors induced a nerve toxin in PC12 cells by differentiating PC12 cells into nerve cells through treating with NGF, and then treating to the differentiated PC12 cells with 20 μM of Aβ42 for 24 hours.
Cytoprotective effect was determined by MTT reduction assay. […] After incubation for 24 hours, 100 μl of MTT (1 mg/ml final concentration) was added to each of wells and incubation was continued for another 4 hours. MTT is used as an indicator of cell viability through its mitochondrial reduction to formazan. Mitochondrial succinate dehydrogenase in live cells converts MTT into visible formazan crystals during incubation. The formazan crystals were then solubilized in DMSO and the absorbance was measured at 540 nm by using enzyme-linked immunosorbent assay (ELISA) microplate reader (Tecan GmbH, Austria). Relative cell viability was calculated compared with the absorbance of the untreated control group.

Substance | cytotoxicity in BV2 cell [1] | cell viability of PC12 cells co-cultured with BV2 cells [2] | toxicity of Aβ42 in BV2 cells ([1]; Aβ42 0.1, 0.5, 1, 5, 10 μM) | production of NO (NO) | cell viability of nerve cell-differentiated PC12 cells ([3]; 10 μM Aβ42, FIG. 2) | PC12 cell viability ([3]; 20 μM Aβ42 for 24 h)
FLHDVQ [HTP-2, FLHDVQ] | did not exhibit cytotoxicity | 75.19±2.55% | – | – | – | –
GTEDELDK [HTP-1] | did not exhibit cytotoxicity | 82.49±3.05% | – | – | – | –
amyloid-beta 42 [Aβ42] | – | – | no toxicities | 24.59 ± 2.54 µM | greatly decreased | reduction
